From US10328049B2, “Infant nutritional product with RRR alpha-tocopherol” (ABBOTT LABORATORIES, priority 2013, dated 2019)

What was measured:
[1] = cited from earlier work; for Activity as alpha-TE: alpha-tocopherol equivalents (TE), table from Vitamin E in Health and Disease, 1993, p. 21
[2] = Brain analysis of infant brain (tocopherol content and correlations); assay type: in vivo, human; details: formula fed infant brain
Description: Cholesterol is a major component of myelin, and thus, is a marker for extent of CNS myelination. Glutamate is a neurotransmitter, which is reported to stimulate neuron outgrowth and branching. […] Accordingly, an excessively high level of dietary gamma-tocopherol may hinder the brain uptake of RRR alpha-tocopherol, and thus, may hinder CNS development.
Most commercial infant formulas are fortified with synthetic alpha-tocopherols. It has been reported that the plasma […] of the 2R isomers are about equal for animals fed a diet containing synthetic alpha-tocopherols. These findings indicate that RRR alpha-tocopherol is preferably absorbed into the brain or it is metabolized at a much slower rate than RSR, RRS and RSS tocopherols.

Row | Compound | Activity as alpha-TE [1] [mg/mg compound] | share of the alpha-tocopherol in brain that is RRR alpha-tocopherol [2] | assigned vitamin E activity ([1]; assigned reference activity)
1 | CC(=O)Oc1c(C)c(C)c2c(c1C)CCC(C)(CCC[C@H](C)CCC[C@H](C)CCCC(C)C)O2 (mixture of isomers) [Synthetic alpha-tocopherol acetate, alpha-tocopherol acetate] | 0.74 | – | –
2 | Cc1c(C)c2c(c(C)c1O)CC[C@@](C)(CCC[C@H](C)CCC[C@H](C)CCCC(C)C)O2 [RRR alpha-tocopherol] | 1.0 | over 60% | 1 mg alpha-tocopherol equivalent (TE) per milligram
3 | CC(C)=CCC/C(C)=C/CC/C(C)=C/CC[C@]1(C)CCc2c(C)c(O)c(C)c(C)c2O1 [RRR alpha-tocotrienol] | 0.3 | – | –
4 | Cc1cc(O)c(C)c2c1O[C@](C)(CCC[C@H](C)CCC[C@H](C)CCCC(C)C)CC2 [RRR beta-tocopherol] | 0.5 | – | –
5 | CC(C)=CCC/C(C)=C/CC/C(C)=C/CC[C@]1(C)CCc2c(C)c(O)cc(C)c2O1 [RRR beta-tocotrienol] | 0.05 | – | –
6 | Cc1cc(O)cc2c1O[C@](C)(CCC[C@H](C)CCC[C@H](C)CCCC(C)C)CC2 [RRR delta-tocopherol] | 0.03 | – | –
7 | Cc1c(O)cc2c(c1C)O[C@](C)(CCC[C@H](C)CCC[C@H](C)CCCC(C)C)CC2 [RRR gamma-tocopherol] | 0.1 | – | –
